Experimental data reported in patent US20120010177A1, “MicroRNA Modulators and Method for Identifying And Using The Same” (The Wistar Institute / North Carolina State University, priority 2008, published 2012).
Read-outs that look alike come from different tables or passages of the source.

Columns and labels:
[1] = test system: mature miR-21; assay: Quantitative RT-PCR of mature miR-21; assay type: cell-based, human; settings: Table 2
Excerpt: (§1) UNG (Applied Biosystems). […] (Sigma).

[2] = test system: mature miR-30; assay: Quantitative RT-PCR of mature miR-30; assay type: cell-based, human; settings: Table 2
Excerpt: as §1

[3] = test system: mature miR-93; assay: Quantitative RT-PCR of mature miR-93; assay type: cell-based, human; settings: Table 2
Excerpt: as §1

[4] = test system: HEK293T (human embryonic kidney) cells; assay: Cell viability assay, HEK293T cells; assay type: cell-based; settings: 10 μM Compound
Excerpt: (§2) In these assays, A172 cells (glioblastoma cells) were contacted with a miR-21 inhibitor either alone or in combination with a conventional antiproliferative agent (i.e., 5-fluorouracil or curcumin). At the concentrations indicated, no toxic effects on HEK293T (human embryonic kidney) cells were observed.

[5] = test system: A172 cells (glioblastoma cells); assay: Cell viability assay, A172 cells, alone or with antiproliferative agent; assay type: cell-based; settings: Homo sapiens, A 172
Excerpt: as §2

[6] = test system: miR-21; assay: High throughput primary miR-21 FLuc reporter assay (concentration-response); assay type: cell-based, human
Outline: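 HeLa cells carrying a Luc-miR-21 firefly luciferase reporter were treated with compound for 48 h. miR-21 inhibition was read as increased luciferase signal. Concentration-response data were fitted with a four-parameter logistic model.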

[7] = 10 μM Compound + 5FU 0.5 μM, read-out: Cell Viability A172 Cells, Compound + 5FU (0.5 μM)
[8] = 10 μM Compound + Curcumin 10 μM, read-out: Cell Viability A172 Cells, Compound + Curcumin (10 μM)
[9] = 10 μM Compound alone, read-out: Cell Viability A172 Cells, Compound
[10] = Homo sapiens, Table 12 singletons, read-out: AC50
[11] = Table 12 singletons, read-out: AC50

Row | Structure (SMILES) | AC50 [6, 10] | further results
1 | C#CCNC(=O)c1ccc(NNc2ccccc2)cc1 [Compound 3] | – | miR-21 RT PCR* (% Decrease as compared to DMSO control) [1]: 39%; mature miR-30 level (% of DMSO control) [2]: 85%; mature miR-93 level, % of DMSO control [3]: 56%; Cell Viability HEK293T Cells [4]: 95%; viability at 10 µM [5, 7]: 52%; viability at 10 µM [5, 8]: 56%; viability at 10 µM [5, 9]: 75%
2 | O=C1c2cc3c(cc2-c2[nH]c(=O)c4ccccc4c21)OCO3 [Compound 5] | – | Cell Viability HEK293T Cells [4]: 79%; viability at 10 µM [5, 7]: 45%; viability at 10 µM [5, 8]: 40%; viability at 10 µM [5, 9]: 70%
3 | COc1ccc2c(c1N)CCC1C2CC[C@]2(C)C(=O)CCC12 (some centres unmarked) [Compound 7] | – | Cell Viability HEK293T Cells [4]: 86%; viability at 10 µM [5, 7]: 54%; viability at 10 µM [5, 8]: 43%; viability at 10 µM [5, 9]: 87%
4 | COc1cc2c(cc1N)C1CC[C@]3(C)C(=O)CCC3C1CC2 (some centres unmarked) [Compound 8] | – | Cell Viability HEK293T Cells [4]: 89%; viability at 10 µM [5, 7]: 78%; viability at 10 µM [5, 8]: 57%; viability at 10 µM [5, 9]: 100%
5 | NC(=O)COC(=O)c1ccc2noc(-c3ccccc3)c2c1 [Compound 274] | 6.56 µM | –
6 | N#CC1=C(SCC(=O)Nc2ccccc2)NC(=O)CC1c1ccc(O)cc1 (centres unmarked) [Compound 275] | 6.56 µM | –
7 | Oc1csc(Cc2nc(-c3ccccc3F)cs2)n1 [Compound 276] | 6.56 µM | –
8 | CSc1ccc(-c2cccc([N+](=O)[O-])c2)nn1 [Compound 277] | 6.56 µM | –
9 | COc1ccc(C2CC(C)(c3ccc(OC)cc3)Nc3ccccc3N2)cc1 (centres unmarked) [Compound 278] | 7.36 µM | –
10 | COc1cc(O)sc1/C=N/c1ccc(Cl)cc1 [Compound 279] | 7.36 µM | –
11 | O=C(CN1c2ccc(Br)cc2-c2ccccc2S1(=O)=O)N1CCCCC1 [Compound 280] | 7.36 µM | –
12 | C[C@]12CC[C@H]3C(=CCc4cc(O)ccc43)[C@@H]1CCC2=O [Compound 281] | 7.36 µM | –
13 | CN(C)c1ccc(-n2cccc2/C=N/n2cnnc2)cc1 [Compound 282] | 8.26 µM | –
14 | Cn1nc(NC(=O)C(F)(F)F)c2ncc(-c3ccc(Cl)cc3)nc21 [Compound 283] | 9.27 µM | –
15 | NC1=NC(=O)/C(=C/c2cn(Cc3ccccc3)c3ccccc23)S1 [Compound 284] | 9.27 µM | –
16 | CCCCC12CN3CCN(CC(C3)/C1=N/NC(=O)c1ccccc1N)C2 [Compound 285] | 9.27 µM | –
17 | COP(=O)(OC)C(Nc1ccc(C)cc1)c1ccc([N+](=O)[O-])cc1 (centres unmarked) [Compound 286] | – | AC50 ([6]; Homo sapiens): 10.4 µM
18 | COc1ccc(/C=C/C(=O)NC2CCCCCC2)cc1S(=O)(=O)N1CCOCC1 [Compound 287] | 10.4 µM | –
19 | CCC(=O)Oc1ccc(NC(=O)CSCc2ccccc2)cc1 [Compound 288] | 11.7 µM | –
20 | COc1ccc(C(CC(=O)Nc2ccc(C(C)=O)cc2)N2Cc3ccccc3C2=O)cc1 (centres unmarked) [Compound 289] | 11.7 µM | –
21 | CNc1cc([N+](=O)[O-])ccc1/N=C/C=C(\O)c1cccs1 [Compound 290] | 11.7 µM | –
22 | CCc1ccc(NC(=O)NCCCN2CCCC2=O)cc1 [Compound 291] | 11.7 µM | –
23 | Cn1nc(NC(=O)C(F)(F)F)c2ncc(-c3ccc(Cl)cc3)nc21 [Compound 292] | – | AC50 [6, 11]: 13.1 µM
24 | CCOC(=O)c1s/c(=N/C(=O)c2c(F)cccc2F)n(C)c1C [Compound 293] | 13.1 µM | –
25 | O=c1c(=Nc2ccccc2O)c(=O)c2ccccc12 [Compound 294] | 13.1 µM | –
26 | CC1(C)Cc2nc3oc4c(S)ncnc4c3cc2CO1 [Compound 295] | 13.1 µM | –

Row | Structure (SMILES) | AC50 [6, 10] | further results
27 | Cc1nc2ccc(/N=C(\S)N3CCC(C)CC3)cc2nc1C [Compound 296] | 13.1 µM | –
28 | Cc1ccc2nc(C)c(/C=C/C(=O)c3ccco3)cc2c1 [Compound 297] | 14.7 µM | –
29 | O=C(c1ccc(COCC(F)(F)F)cc1)N1CCN(c2ccccn2)CC1 [Compound 298] | 14.7 µM | –
30 | Nc1ccc2c(c1)Cc1cc([N+](=O)[O-])ccc1-2 [Compound 299] | 14.7 µM | –
31 | CC(C)N1C(=O)CN(C2CCCCCC2)C(=O)C1c1ccccc1F (centres unmarked) [Compound 301] | 14.7 µM | –
32 | CC(/C=C/c1ccccc1)=N\N/C(S)=N/C(C)C [Compound 302] | 14.7 µM | –
33 | CCOc1cccc(OCCOc2ccccc2[N+](=O)[O-])c1 [Compound 303] | 14.7 µM | –
34 | Cc1ccc(/N=C(/c2cccs2)N2CCOCC2)cc1 [Compound 304] | 14.7 µM | –
35 | Cc1ccc2c(c1)NCC(C(=O)NC1CCC(C)CC1)O2 (centres unmarked) [Compound 305] | 14.7 µM | –
36 | CCN(CC)C(=O)CS/C(=N/C#N)Nc1ccccc1F [Compound 306] | 14.7 µM | –
37 | CCc1cccc(CC)c1N(COC)C(=O)Cn1c(CC)nc2ccccc21 [Compound 307] | 14.7 µM | –
38 | CC(C)(C)c1ccc(CN2C(=O)c3ccccc3S2(=O)=O)cc1 [Compound 308] | 14.7 µM | –
39 | CCn1c(=O)c(C(=O)Nc2ccccc2S(N)(=O)=O)c(O)c2ccccc21 [Compound 309] | 14.7 µM | –
40 | COc1ccc(-c2nn3c(-c4ccccc4)nnc3s2)cc1OC [Compound 310] | 14.7 µM | –
41 | Cn1nc2c3ccccc3n(Cc3ccccc3)c2nc1=S [Compound 311] | 14.7 µM | –
42 | CC(=O)O[C@H]1C[C@@]2(C)[C@@H](C[C@@H](O)[C@H]3[C@@]4(C)CC[C@@H](O)[C@@H](C)C4CC[C@@]32C)/C1=C(\CCC=C(C)C)C(=O)O (some centres unmarked) [Compound 312] | 14.7 µM | –
43 | Cc1cc(CC(C)C)n(-c2nc3ccccc3c(=O)n2OCC(N)=O)n1 [Compound 313] | 14.7 µM | –
44 | c1csc(-c2nn3c(C4COc5ccccc5O4)nnc3s2)c1 (centres unmarked) [Compound 314] | 16.5 µM | –
45 | O=C(CC1NCCc2ccccc21)Nc1cccc(Cl)c1 (centres unmarked) [Compound 315] | 16.5 µM | –
46 | CNc1nc(C)c(C(=O)OCc2ccccc2)s1 [Compound 316] | 16.5 µM | –
47 | O=C(NC12CC3CC(CC(C3)C1)C2)N1CCN(C(=O)c2ccco2)CC1 [Compound 317] | 16.5 µM | –
48 | CCc1ccc(N2C(=O)Cc3c2nc(N)c(C#N)c3N)cc1 [Compound 318] | 16.5 µM | –
49 | CCCNC(=O)OCc1cccnc1Sc1ccc(C)cc1 [Compound 319] | 16.5 µM | –
50 | COC(=O)c1ccc(CN2C(=O)NC3(CCCCC3)C2=O)cc1 [Compound 320] | 16.5 µM | –
51 | O=c1n(Cc2ccccc2)nc2n1-c1ccccc1SC2 [Compound 321] | 16.5 µM | –
52 | CC(=O)N1N=C(c2ccc(C)cc2)OC1c1cccnc1 (centres unmarked) [Compound 322] | 16.5 µM | –

Row | Structure (SMILES) | AC50 [6, 10] | further results
53 | Cc1cccc2c1-c1sc(C(=O)Nc3cccnc3)cc1CO2 [Compound 323, CC1═C/C═C\C2═C\1\C3═C(CO2)\C═C(/S3)C(═O)NC4═C/C═C\N═C\4] | – | Curve Class ([6]; Table 12 singletons, concentration-response curve class): −2.2; Efficacy ([6]; Table 12 singletons, negative values as printed): −70.23; AC50 [6, 11]: 16.5 µM
54 | CCCCCc1nc2c(=O)n(C)c3ccccc3c2o1 [Compound 324] | 16.5 µM | –
55 | CN1CCN(/N=C/c2nc(-c3ccc(Cl)cc3)n3ccccc23)CC1 [Compound 325] | 16.5 µM | –
56 | C#CN/C(=N\CC=C)SCCc1ccccc1 [Compound 326] | 16.5 µM | –
57 | c1ccc(-c2nnc(CN3CCCCC3)o2)cc1 [Compound 327] | 16.5 µM | –
58 | O=c1c(NCc2cccs2)nccn1-c1ccc(F)cc1 [Compound 328] | 16.5 µM | –
59 | CCOC(=O)N1CCN(C(=O)CSCc2ccccc2Cl)CC1 [Compound 329] | 16.5 µM | –
60 | O=C(Nc1ccc(N2CCOCC2)cc1)c1cc(F)c(F)cc1Cl [Compound 330] | 16.5 µM | –
61 | CCC(C)NC(=O)c1ccc2c(c1)S(=O)(=O)c1ccccc1C2=O (centres unmarked) [Compound 331] | 16.5 µM | –
62 | CSc1c(C#N)c(N)c(C#N)c2c1COC(C)(C)C2 [Compound 332] | 18.5 µM | –
63 | CCOC(=O)Nc1ccc2c(c1)ncn2C1CCCCC1 [Compound 333] | 18.5 µM | –
64 | CC1Oc2ccccc2N(CC(=O)NCc2cccs2)C1=O (centres unmarked) [Compound 334] | 18.5 µM | –
65 | CCOC(=O)C1CCCN(Cc2cccc(Cl)c2)C1 (centres unmarked) [Compound 335] | 18.5 µM | –
66 | Nc1cccc(CCc2nc3ccccc3[nH]2)c1 [Compound 336] | 18.5 µM | –
67 | CC(=O)N(C)c1ccc(N/C(S)=N/c2cccc3ccccc23)cc1 [Compound 337] | 18.5 µM | –
68 | Cn1c(=N)n(CC(=O)C(C)(C)C)c2ccccc21 [Compound 338] | 18.5 µM | –
69 | O=C(NC1CCCCCC1)C1CCCN(c2ncccn2)C1 (centres unmarked) [Compound 339] | 18.5 µM | –
70 | COC(=O)C1C(=O)C=C(Nc2ccc(F)cc2F)CC1c1ccccc1 (centres unmarked) [Compound 340] | 18.5 µM | –
71 | CCN(CC)CCCNC(=O)CCC(=O)Nc1ccc2nc(N3CCC(C)CC3)cc(C)c2c1 [Compound 341] | 18.5 µM | –
72 | Cc1ccc(/C=N/NC(=O)NC2CCCCC2)o1 [Compound 342] | 18.5 µM | –
73 | COC(=O)C1C(=O)C=C(Nc2ccc(F)cc2F)CC1c1ccccc1 (centres unmarked) [Compound 343] | – | AC50 [6, 11]: 18.5 µM
74 | CCNc1ccc(/N=N/c2c(C)n(C)n(-c3ccccc3)c2=O)cc1 [Compound 344] | 16.5 µM | –
75 | O=C(CN1c2ccc(Br)cc2-c2ccccc2[S+]1(=O)[O-])N1CCCCC1 [Compound 345] | 9.27 µM | –
76 | Cc1ccc2oc(=O)c(/C=C(\O)c3cccs3)nc2c1 [Compound 346] | 14.7 µM | –
77 | COc1ccc(C2Nc3ccccc3C(=O)N2c2ccc(C)cc2)cc1Cn1nc(C)c([N+](=O)[O-])c1C (centres unmarked) [Compound 347] | 3.09 µM | –
78 | C[C@]12CC[C@@H]3c4ccc(O)cc4CC[C@H]3[C@@H]1CCC2=O [estrone, reference compound] | – | Cell Viability HEK293T Cells [4]: 85%
